# Experiments:
# [1] = tested on: FADU subcutaneous human xenograft; experiment: In vivo tumor growth delay study, FADU subcutaneous human xenograft mouse model
# Text: Tumor Studies. Female NCr nu/nu mice (Crl:NU(NCr)-Foxn1 nu, Strain 490) were obtained from Charles River at 5-6 weeks of age. All animal procedures used in these studies were approved by the Institutional Animal Care and Use Committee (IACUC) at Duke University.
# FADU or MDA-MB-231 cells were harvested during log phase growth for in vivo implantation. The resuspended cells were washed three times in phosphate buffered saline (PBS) before preparing the working dilution in PBS. FADU cells were diluted to 1×10^7 cells/mL and MDA-MB-231 cells were diluted to 5×10^7 cells/mL. Each mouse was injected subcutaneously in the right flank with 100 μL of the cellular suspension. Tumor growth was monitored until the tumors reached a target volume of at least 100 mm^3, at which point mice were randomly stratified into four treatment groups.
# Following implantation of the tumor cell lines, mice were monitored once weekly for tumor development. Upon detection, tumors were measured in two dimensions using digital calipers. Tumors were treated after reaching at least 100 mm^3 and were measured two to three times weekly following enrollment in one of the treatment groups. The study endpoint was defined as tumor quintupling from the volume at time of treatment.
# The vehicle used in this study was 0.5% (Hydroxypropyl)methyl cellulose (HPMC) and 0.2% Tween80 dissolved in deionized water. The pH of the vehicle was adjusted to 7.0-8.0 and the vehicle was stored at 4° C. […]
# In vivo tumor growth delay study was performed as follows. Following implantation of the tumor cell lines, mice were monitored once weekly for tumor development. […]
# Statistical and Graphical Analysis of the in vivo data. […] In order to adjust for the differing tumor sizes at the start of treatment, the relative tumor volume was calculated by dividing the tumor volume at each time point by the volume at baseline. […] When an animal exited the study due to tumor quintupling, the final tumor volume recorded for the animal was included with the data used to calculate the median volume at subsequent time points. […]
# [2] = tested on: MCF7 cells; experiment: Clonogenic survival assay in MCF7 cells with or without radiation; type: cell-based, human; details: for Fold 2 Gy / Fold 4 Gy: relative to DMSO
# Method: Cell Culture. The MCF-7 human breast carcinoma cell line and HCT116 p53 wild-type and HCT116 p53−/− cell lines were obtained from ATCC. MCF7 and HCT116 cells were cultured in Dulbecco's modified Eagle's medium (DMEM (Gibco #11995-065). MDA-MB-231 human triple negative breast cancer cell line and FADU, human head and neck squamous cell carcinoma line, were obtained from Charles River Laboratories (Morrisville, N.C.). MDA-MB-231 cells were cultured in RPMI 1640 medium (Gibco, 11875-093). FADU cells were cultured in Minimum Essential Medium a (MEM a) (Gibco, 12571-063) supplemented with 1 mM Sodium Pyruvate (Gibco, 11360-070), 1×MEM Non-Essential Amino Acids (Gibco, 11140-050). All cell lines were supplemented with 10% fetal bovine serum (FBS) (Corning, 35-010-CV) and 1× Anti biotic-Anti mycotic (Gibco #15240-062) and were grown at […]. All cell lines were authenticated by short tandem repeat profiling and tested negative for mycoplasma.
# Clonogenic survival assay. This assay was performed with compound 569. Cells were plated in 6-well plates at different densities: 250 cells for no IR control, 5000 cells for 2 Gy of IR and 10000 cells for 4 Gy of IR and cultured overnight. The next day, cells were preincubated with compound 569 at 100, 250, 500, or 1000 nM or DMSO for 30 min before being exposed to increasing doses of IR (0, 2, or 4 Gy). After IR, cells were continuously incubated with DMSO or compound 569 for 5 h before the culture medium was removed and cells were washed with PBS. Cells were cultured in complete medium in the absence of inhibitor for 9 days. Then cells were stained (PBS, 0.0037% v/v formaldehyde, 0,1% crystal violet) rinsed with water and dried.
compound,measurement,setting,value
"CC(C)NCCOc1ncc(-c2cc3c4c(cnc3cc2F)N(C)C(=O)C42CCC2)cc1NS(C)(=O)=O [Compound 569, N-(5-(7′-Fluoro-3′-methyl-2′-oxo-2′,3′-dihydrospiro[cyclobutane-1,1′-pyrrolo[2,3-c]quinolin]-8′-yl)-2-(2-(isopropylamino)ethoxy)pyridin-3-yl)methanesulfonamide]",tumor growth curves and quintupling-free survival,"[1]; FADU, Group 2 (10 mg/kg qd×3 alone) versus Group 1 (vehicle)",nearly identical to those for Group 1
same,"overall survival compared to Group 1, Group 2 and Group 3","[1]; FADU, Group 4: 10 mg/kg + 3 Gy qd×3, P<0.01, logrank",significantly improved
same,tolerability,"[1]; FADU-bearing mice, 10 mg/kg qd×3 alone or with 3 Gy",well-tolerated
same,Fold 2 Gy,[2]; 100 nM,7.5
same,Fold 4 Gy,[2]; 100 nM,21.8
same,Fold 2 Gy,[2]; 250 nM,10.8
same,Fold 4 Gy,[2]; 250 nM,54.0
same,Fold 2 Gy,[2]; 500 nM,14.7
same,Fold 4 Gy,[2]; 500 nM,91.5
same,Fold 2 Gy,[2]; 1000 nM,22.0
same,Fold 4 Gy,[2]; 1000 nM,198
same,radiosensitization,"[2]; 5-h exposure, 100-1000 nM, IR 0, 2, 4 Gy",significant degree of radiosensitization
same,cellular toxicity in the absence of IR,"[2]; 5-h exposure, 100-1000 nM, no IR",without evidence of cellular toxicity

# From patent publication US20220142995A1, “DUAL ATM AND DNA-PK INHIBITORS FOR USE IN ANTI-TUMOR THERAPY” (XRAD Therapeutics, Inc., priority 2019, published 2022)
